Earlier results on 1 molecule are cited in patent US20080096857A1, “Photodynamic Therapy For The Treatment Of Hyperactive Sebaceous Gland Disorders Using Topically Applied Hydrophobic Green Porphyrins” (QLT Inc., priority 2004, published 2008).

The data set concerns acne vulgaris. The following applies: topical ALA-PDT of acne vulgaris; J. Invest Dermatol 115:183-192, 2000.

Regarding `NCC(=O)CCC(=O)O` [ALA, 5-aminolevulinic acid], the “adverse events during and after the treatment” value was “serious adverse events that occurred during and after the treatment including erythema, edema, and sensations of pain, burning and itching”.
